Assay results reported in PMC9871744 (Cellular and Molecular Gastroenterology and Hepatology, 2022).
“And” between values parts separate entries of the source, which are not always exact repeats. Equal entries are not always repeated.

How the values were obtained:
C57Bl/6 male mice = assay: Two-bottle preference and licking tests; type: in vivo; settings: 50 μmol/L in 0.3% xanthan gum, 12 hours
[1] = tested on: S typhimurium tester strains TA98, TA100, TA1535, and TA1537 and E coli tester strain WP2uvrA(pKM101); settings: all doses with and without S9
[2] = biological target: T1, human estrogen receptor alpha (hERα) (Homo sapiens, UniProt P03372); assay: Estrogen receptor transcriptional activation and inhibition assays; type: cell-based
T1 sequence (P03372 1-595): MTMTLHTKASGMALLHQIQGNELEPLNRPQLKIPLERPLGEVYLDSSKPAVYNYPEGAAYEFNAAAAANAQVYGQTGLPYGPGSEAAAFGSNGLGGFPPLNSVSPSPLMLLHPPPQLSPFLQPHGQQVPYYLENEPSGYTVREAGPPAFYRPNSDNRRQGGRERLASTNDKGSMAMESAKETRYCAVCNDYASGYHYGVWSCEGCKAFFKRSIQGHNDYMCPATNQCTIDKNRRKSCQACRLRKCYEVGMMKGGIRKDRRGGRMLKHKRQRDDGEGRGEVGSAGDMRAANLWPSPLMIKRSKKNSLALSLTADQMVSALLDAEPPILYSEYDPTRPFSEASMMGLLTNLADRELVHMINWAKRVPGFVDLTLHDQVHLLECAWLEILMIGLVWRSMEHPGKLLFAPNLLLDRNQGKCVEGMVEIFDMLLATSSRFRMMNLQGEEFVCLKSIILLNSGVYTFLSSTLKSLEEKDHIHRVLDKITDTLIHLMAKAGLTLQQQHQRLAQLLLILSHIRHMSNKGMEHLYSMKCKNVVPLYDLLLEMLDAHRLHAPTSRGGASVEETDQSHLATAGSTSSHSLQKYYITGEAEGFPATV

female Wistar rats = assay: Toxicity / median lethal dose test, OECD guidelines 425; type: in vivo
HepG2 cells = assay: Cytotoxicity evaluation
Cytotoxicity evaluation = settings: human, Cytotoxicity (%), extended treatment in the absence of S9 mix
[3] = rats, single oral 2000 mg/kg, means ± SEM (n = 5)
[4] = extended treatment in the absence of S9 mix, 0.0065 mmol/L
[5] = extended treatment in the absence of S9 mix, 0.010 mmol/L
[6] = extended treatment in the absence of S9 mix, 0.020 mmol/L
[7] = extended treatment in the absence of S9 mix, 0.030 mmol/L
[8] = extended treatment in the absence of S9 mix, 0.040 mmol/L
[9] = short treatment in absence of S9 mix, 0.025 mmol/L
[10] = short treatment in absence of S9 mix, 0.050 mmol/L
[11] = short treatment in absence of S9 mix, 0.100 mmol/L
[12] = short treatment in absence of S9 mix, 0.25 mmol/L
[13] = short treatment in the presence of S9 mix, 0.025 mmol/L
[14] = short treatment in the presence of S9 mix, 0.050 mmol/L
[15] = short treatment in the presence of S9 mix, 0.100 mmol/L
[16] = short treatment in the presence of S9 mix, 0.25 mmol/L

## CCCCC/C=C\C/C=C\CCCCCCCCP(=O)(OCC)OCC [NKS-3, diethyl (9Z,12Z)-octadeca-9,12-dien-1-ylphosphonate]
C57Bl/6 male mice
  preference in 2-bottle paradigm versus control solution: significant preference
[1]
  toxicity in the tester strains: No toxicity
[2]
  estrogenic or antiestrogenic potential (conclusion): did not exert an estrogenic or antiestrogenic potential
Female Wistar rats; [3]
  weight of kidneys: 1.82 ± 0.193 g
  weight of liver: 8.12 ± 0.188 g
  weight of spleen: 0.96 ± 0.12 g
Female Wistar rats; rats, single oral limit dose 2000 mg/kg body weight, 2 weeks
  toxic effect on liver enzymes and blood lipid parameters: No toxic effect
Female Wistar rats; single animal, oral dosages of 5000 mg/kg body weight
  evidence of toxicity, preliminary study: no evidence of toxicity
HepG2 cells; extended treatment in the absence of S9 mix
  concentrations with evidence of toxicity: ≥ 30 µM
HepG2 cells; [4]
  CBPI: 1.64 and 1.74
  Mean CBPI: 1.69
HepG2 cells; [5]
  CBPI: 1.57 and 1.62
  Mean CBPI: 1.59
HepG2 cells; [6]
  CBPI: 1.47 and 1.46
  Mean CBPI: 1.46
HepG2 cells; [7]
  CBPI: 1.25
  Mean CBPI: 1.25
HepG2 cells; [8]
  CBPI: 1.24
  Mean CBPI: 1.24
HepG2 cells; extended treatment in the absence of S9 mix, 0.062 mmol/L
  Cytotoxicity (%): Cell death
HepG2 cells; extended treatment in the absence of S9 mix, 0.125 mmol/L
  Cytotoxicity (%): Cell death
HepG2 cells; [9]
  CBPI: 1.83 and 1.84
  Mean CBPI: 1.84
HepG2 cells; [10]
  CBPI: 1.64 and 1.66
  Mean CBPI: 1.65
HepG2 cells; [11]
  CBPI: 1.28 and 1.38
  Mean CBPI: 1.33
HepG2 cells; [12]
  CBPI: 1.28
  Mean CBPI: 1.26
HepG2 cells; short treatment in absence of S9 mix, 0.40 mmol/L
  Cytotoxicity (%): Cell death
HepG2 cells; short treatment in absence of S9 mix, 0.50 mmol/L
  Cytotoxicity (%): Cell death
HepG2 cells; short treatment in absence of S9 mix, 1.00 mmol/L
  Cytotoxicity (%): Cell death
HepG2 cells; short treatment in absence of S9 mix, 5.00 mmol/L
  Cytotoxicity (%): Cell death
HepG2 cells; short treatment in absence of S9 mix, 10.00 mmol/L
  Cytotoxicity (%): Cell death
HepG2 cells; short treatment in the absence of S9 mix
  concentrations with evidence of toxicity: ≥ 250 µM
HepG2 cells; short treatment in the presence of S9 mix
  concentrations with evidence of toxicity: ≥ 250 µM
HepG2 cells; [13]
  CBPI: 1.83 and 1.84
  Mean CBPI: 1.83
HepG2 cells; [14]
  CBPI: 1.86 and 1.82
  Mean CBPI: 1.84
HepG2 cells; [15]
  CBPI: 1.63 and 1.66
  Mean CBPI: 1.65
HepG2 cells; [16]
  CBPI: 1.20 and 1.23
  Mean CBPI: 1.22
HepG2 cells; short treatment in the presence of S9 mix, 0.40 mmol/L
  Cytotoxicity (%): Cell death
HepG2 cells; short treatment in the presence of S9 mix, 0.50 mmol/L
  Cytotoxicity (%): Cell death
HepG2 cells; short treatment in the presence of S9 mix, 1.00 mmol/L
  Cytotoxicity (%): Cell death
HepG2 cells; short treatment in the presence of S9 mix, 5.00 mmol/L
  Cytotoxicity (%): Cell death
HepG2 cells; short treatment in the presence of S9 mix, 10.00 mmol/L
  Cytotoxicity (%): Cell death
Cytotoxicity evaluation; 0.0065 mmol/L
  cytotoxicity at 0.0065 mmol/L: 24.9%
Cytotoxicity evaluation; 0.010 mmol/L
  cytotoxicity at 0.01 mmol/L: 35.3%
Cytotoxicity evaluation; 0.020 mmol/L
  cytotoxicity at 0.02 mmol/L: 49.5%
